SMILES strings stand for the structures.

The subject of test [1] is K562. As to the kind of experiment: Ability to inhibit the growth of human myelogenous leukemia K562 cells. Format: functional, cell-based.
Test [2] deals with K562. Kind of test: Ability to inhibit the growth of human myelogenous leukemia K562 cells at 100 uM; no growth. Format: functional, cell-based.

As for `NC(=O)c1csc([C@@H]2O[C@H](CO)[C@@H](O)[C@H]2O)c1`, in the test with K562 [1], the IC50 (in general, the concentration at which inhibition is half-maximal) was 4.6 µM.

Consider `NC(=O)c1c[nH]c([C@@H]2O[C@H](CO)[C@@H](O)[C@H]2O)n1`, for which the Activity result with K562 [2] was “no growth”.

Source of the values: ChEMBL document CHEMBL1134052, “A new C-nucleoside analogue of tiazofurin: synthesis and biological evaluation of 2-beta-D-ribofuranosylimidazole-4-carboxamide (imidazofurin)” (Bioorg Med Chem Lett, 2001).
